Biological target: KOR (Homo sapiens, UniProt P41145)
Experiment: Opioid secondary binding, KOR (Tables 4, 5, 8, 9)
Conditions: not given

Chain of KOR (P41145 whole entry): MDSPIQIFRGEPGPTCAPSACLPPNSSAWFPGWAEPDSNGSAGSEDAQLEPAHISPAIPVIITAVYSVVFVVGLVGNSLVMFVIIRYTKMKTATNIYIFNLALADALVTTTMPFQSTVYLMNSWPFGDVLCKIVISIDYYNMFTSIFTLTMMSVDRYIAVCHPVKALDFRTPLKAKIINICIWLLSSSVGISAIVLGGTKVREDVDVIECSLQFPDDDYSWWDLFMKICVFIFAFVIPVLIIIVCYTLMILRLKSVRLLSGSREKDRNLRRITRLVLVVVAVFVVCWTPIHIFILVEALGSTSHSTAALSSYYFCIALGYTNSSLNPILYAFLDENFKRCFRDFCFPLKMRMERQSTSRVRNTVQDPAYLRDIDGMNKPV

Compound	Ki
O=C(NC1CCCCC1)[C@@H]1CC=C[C@@H]2CCN(Cc3ccccc3)C(=O)[C@@H]21 [compound 11791]	1300 nM

Same assay, conditions: Opioid secondary binding activity for Formula 10 analogs; read-out: KOR, Ki

Compound	Ki
O=C(OCc1ccccc1)C1CCCN1C(=O)C1CC=CC2CCN(Cc3ccc(Cl)cc3)C(=O)C21 (mixture of isomers) [compound 11808]	2290 nM
COC(=O)C(CCSC)NC(=O)C1CC=CC2CCN(Cc3ccccc3)C(=O)C21 (mixture of isomers) [compound 11816]	2630 nM
COC(=O)C(C)NC(=O)C1CC=CC2CCN(Cc3ccccc3)C(=O)C21 (mixture of isomers) [compound 11818]	6170 nM
O=C(OCc1ccccc1)C(Cc1ccccc1)NC(=O)C1CC=CC2CCN(Cc3ccccc3)C(=O)C21 (mixture of isomers) [compound 11819]	1290 nM
CCOC(=O)CCC(NC(=O)C1CC=CC2CCN(C3CCCCC3)C(=O)C21)C(=O)OCC (mixture of isomers) [compound 11821]	4710 nM
COC(=O)C(CCSC)NC(=O)C1CC=CC2CCN(C3CCCCC3)C(=O)C21 (mixture of isomers) [compound 11822]	4500 nM
O=C(OCc1ccccc1)C(Cc1ccccc1)NC(=O)C1CC=CC2CCN(C3CCCCC3)C(=O)C21 (mixture of isomers) [compound 11825]	1110 nM
O=C(OCc1ccccc1)C(Cc1ccccc1)NC(=O)C1CC=CC2CCN(CCc3ccccc3)C(=O)C21 (mixture of isomers) [compound 11831]	1520 nM
CC(NC(=O)C1CC=CC2CCN(C3CCCCC3)C(=O)C21)c1ccccc1 (mixture of isomers) [compound 11836]	599 nM
CC(NC(=O)C1CC=CC2CCN(CCc3ccccc3)C(=O)C21)c1ccccc1 (mixture of isomers) [compound 11848]	3490 nM
CC(NC(=O)C1CC=CC2CCN(Cc3ccccc3)C(=O)C21)c1ccccc1 (mixture of isomers) [compound 11854]	712 nM
O=C(O)C(Cc1ccccc1)NC(=O)C1CC=CC2CCN(Cc3ccccc3)C(=O)C21 (mixture of isomers) [compound 11902]	3380 nM
O=C(Nc1cccc(Cl)c1)[C@@H]1CC=C[C@@H]2CCN(c3ccccc3)C(=O)[C@@H]21 (racemic) [compound 10821]	420 nM
O=C(Nc1ccc(C(F)(F)F)cc1)[C@@H]1CC=C[C@@H]2CCN(c3ccccc3)C(=O)[C@@H]21 (racemic) [compound 10822]	786 nM
O=C(Nc1ccc(F)c(F)c1)[C@@H]1CC=C[C@@H]2CCN(c3ccccc3)C(=O)[C@@H]21 (racemic) [compound 10823]	375 nM
O=C(Nc1c(F)cccc1F)[C@@H]1CC=C[C@@H]2CCN(c3ccccc3)C(=O)[C@@H]21 (racemic) [compound 10824]	5000 nM
O=C(Nc1ccc(Cl)cc1Cl)[C@@H]1CC=C[C@@H]2CCN(c3ccccc3)C(=O)[C@@H]21 (racemic) [compound 10826]	287 nM
O=C(Nc1ccc(Cl)cc1Cl)[C@@H]1CC=C[C@@H]2CCN(CCc3ccccc3)C(=O)[C@@H]21 (racemic) [compound 10834]	6480 nM
COc1ccc(NC(=O)[C@@H]2CC=C[C@@H]3CCN(Cc4ccc(Cl)cc4)C(=O)[C@@H]32)cc1 (racemic) [compound 10835]	5070 nM
O=C(Nc1cccc(Cl)c1)[C@@H]1CC=C[C@@H]2CCN(Cc3ccc(Cl)cc3)C(=O)[C@@H]21 (racemic) [compound 10836]	225 nM
O=C(Nc1ccc(C(F)(F)F)cc1)C1CC=CC2CCN(Cc3ccc(Cl)cc3)C(=O)C21 (racemic) [compound 10837]	2530 nM
O=C(Nc1cccc(C(F)(F)F)c1)C1CC=CC2CCN(Cc3ccc(Cl)cc3)C(=O)C21 (racemic) [compound 10838]	1510 nM
O=C(Nc1ccc(F)c(F)c1)C1CC=CC2CCN(Cc3ccc(Cl)cc3)C(=O)C21 (racemic) [compound 10839]	652 nM
O=C(Nc1ccc(Cl)c(C(F)(F)F)c1)C1CC=CC2CCN(Cc3ccc(Cl)cc3)C(=O)C21 (racemic) [compound 10841]	465 nM

Compound	Ki
CC(C)N1CCC2C=CCC(C(=O)Nc3cccc(Cl)c3)C2C1=O (racemic) [compound 10844]	2130 nM
CC(C)N1CCC2C=CCC(C(=O)Nc3cccc(C(F)(F)F)c3)C2C1=O (racemic) [compound 10846]	621 nM
CC(C)N1CCC2C=CCC(C(=O)Nc3ccc(F)c(F)c3)C2C1=O (racemic) [compound 10847]	4200 nM
CC(C)N1CCC2C=CCC(C(=O)Nc3ccc(Cl)c(C(F)(F)F)c3)C2C1=O (racemic) [compound 10849]	261 nM
CC(C)N1CCC2C=CCC(C(=O)Nc3ccc(Cl)cc3Cl)C2C1=O (racemic) [compound 10850]	2410 nM
O=C(Nc1ccc(Cl)c(C(F)(F)F)c1)C1CCCC2CCN(C3CCCCC3)C(=O)C21 (racemic) [compound 11479]	792 nM
O=C(NCc1ccc(Cl)c(C(F)(F)F)c1)[C@@H]1CC=C[C@@H]2CCN(C3CCCCC3)C(=O)[C@@H]21 (racemic) [compound 11856]	531 nM
O=C(Nc1ccc(Br)c(C(F)(F)F)c1)[C@@H]1CC=C[C@@H]2CCN(C3CCCCC3)C(=O)[C@@H]21 (racemic) [compound 11857]	814 nM
O=C(Nc1ccc(Cl)cc1C(F)(F)F)[C@@H]1CC=C[C@@H]2CCN(C3CCCCC3)C(=O)[C@@H]21 (racemic) [compound 11858]	866 nM
Cc1cc(NC(=O)[C@@H]2CC=C[C@@H]3CCN(C4CCCCC4)C(=O)[C@@H]32)ccc1Cl (racemic) [compound 11860]	716 nM
O=C(Nc1ccc(C(F)(F)F)cc1Cl)[C@@H]1CC=C[C@@H]2CCN(c3ccccc3)C(=O)[C@@H]21 (racemic) [compound 11865]	180 nM
O=C(Nc1ccc(C(F)(F)F)cc1Cl)[C@@H]1CC=C[C@@H]2CCN(CCc3ccccc3)C(=O)[C@@H]21 (racemic) [compound 11877]	3300 nM
O=C(NC1CCCCC1)[C@@H]1CC=C[C@@H]2CCN(CC3CCCCC3)C(=O)[C@@H]21 (racemic) [compound 11886]	177 nM
O=C(Nc1ccccc1)[C@@H]1CC=C[C@@H]2CCN(CC3CCCCC3)C(=O)[C@@H]21 (racemic) [compound 11887]	187 nM
O=C(Nc1ccc(F)c(F)c1)[C@@H]1CC=C[C@@H]2CCN(CC3CCCCC3)C(=O)[C@@H]21 (racemic) [compound 11889]	131 nM
O=C(Nc1ccc(Cl)c(C(F)(F)F)c1)[C@@H]1CC=C[C@@H]2CCN(CC3CCCCC3)C(=O)[C@@H]21 (racemic) [compound 11890]	840 nM
O=C1NCC[C@H]2C=CC[C@@H](C(=O)Nc3ccc(Cl)c(C(F)(F)F)c3)[C@@H]12 (racemic) [compound 11896]	729 nM
O=C(Nc1ccc(F)cc1)[C@@H]1CC=C[C@@H]2CCN(Cc3ccccc3)C(=O)[C@@H]21 (racemic) [compound 11909]	276 nM
O=C(NCc1ccccc1)[C@@H]1CC=C[C@@H]2CCN(C3CCCCC3)C(=O)[C@@H]21 (racemic) [compound 11918]	358 nM
Cc1ccc(NC(=O)[C@@H]2CC=C[C@@H]3CCN(C4CCCCC4)C(=O)[C@@H]32)cc1Cl (racemic) [compound 11919]	102 nM
O=C(Nc1ccc([N+](=O)[O-])c(C(F)(F)F)c1)[C@@H]1CC=C[C@@H]2CCN(C3CCCCC3)C(=O)[C@@H]21 (racemic) [compound 11920]	5110 nM
COc1cccc(F)c1CN1CC[C@H]2C=CC[C@@H](C(=O)Nc3ccc(C)c(F)c3F)[C@H]2C1=O (racemic) [compound 13485]	5120 nM
O=C(Nc1c(F)c(F)c(F)c(F)c1F)[C@@H]1CC=C[C@@H]2CCN(Cc3ccccc3)C(=O)[C@@H]21 (racemic) [compound 14309]	2970 nM
O=C(Nc1ccccc1)[C@@H]1CC=C[C@@H]2CCN(Cc3ccccc3)C(=O)[C@@H]21 [compound 11793]	1610 nM

Biological target: DOR (Homo sapiens, UniProt P41143)
Sequence (P41143 whole entry): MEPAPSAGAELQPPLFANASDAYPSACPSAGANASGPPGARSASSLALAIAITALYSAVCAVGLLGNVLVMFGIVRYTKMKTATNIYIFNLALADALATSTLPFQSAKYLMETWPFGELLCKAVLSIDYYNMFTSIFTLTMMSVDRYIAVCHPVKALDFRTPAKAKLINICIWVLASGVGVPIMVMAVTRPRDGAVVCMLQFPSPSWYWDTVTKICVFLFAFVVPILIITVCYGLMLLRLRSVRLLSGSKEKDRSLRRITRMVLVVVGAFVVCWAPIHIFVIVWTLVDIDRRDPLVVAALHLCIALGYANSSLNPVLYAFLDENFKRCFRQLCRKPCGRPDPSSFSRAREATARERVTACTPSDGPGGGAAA
Experiment: Opioid secondary binding, DOR (Table 4)
Conditions: Opioid secondary binding activity for Formula 10 analogs

Compound	Ki
CC(c1ccccc1)N1CCC2C=CCC(C(=O)Nc3cccc(Cl)c3)C2C1=O (mixture of isomers) [compound 12165]	1210 nM
CC(c1ccccc1)N1CCC2C=CCC(C(=O)Nc3ccc(F)c(F)c3)C2C1=O (mixture of isomers) [compound 12166]	3200 nM
CC(c1ccccc1)N1CCC2C=CCC(C(=O)Nc3nccs3)C2C1=O (mixture of isomers) [compound 12168]	1450 nM
O=C(Nc1cccnc1)[C@@H]1CC=C[C@@H]2CCN(C3CCCCC3)C(=O)[C@@H]21 (racemic) [compound 11921]	836 nM
Cc1ccc(NC(=O)[C@@H]2CC=C[C@@H]3CCN(c4ccccc4)C(=O)[C@@H]32)cc1Cl (racemic) [compound 11925]	15 nM
O=C(Nc1ccc([N+](=O)[O-])c(C(F)(F)F)c1)[C@@H]1CC=C[C@@H]2CCN(c3ccccc3)C(=O)[C@@H]21 (racemic) [compound 11926]	35 nM
O=C(Nc1cccnc1)[C@@H]1CC=C[C@@H]2CCN(c3ccccc3)C(=O)[C@@H]21 (racemic) [compound 11927]	2100 nM
O=C(NCc1ccccc1)[C@@H]1CC=C[C@@H]2CCN(Cc3ccccc3)C(=O)[C@@H]21 (racemic) [compound 11930]	739 nM
O=C(Nc1cccnc1)[C@@H]1CC=C[C@@H]2CCN(Cc3ccccc3)C(=O)[C@@H]21 (racemic) [compound 11933]	3530 nM
O=C(NC12CC3CC(CC(C3)C1)C2)[C@@H]1CC=C[C@@H]2CCN(CC3CC3)C(=O)[C@@H]21 (racemic) [compound 11940]	701 nM
O=C(Nc1ccc(I)cc1)[C@@H]1CC=C[C@@H]2CCN(CC3CC3)C(=O)[C@@H]21 (racemic) [compound 11942]	1280 nM
Cc1cc(C)c(NC(=O)[C@@H]2CC=C[C@@H]3CCN(CC4CC4)C(=O)[C@@H]32)c(C)c1 (racemic) [compound 11945]	> 10000 nM
O=C(NC12CC3CC(CC(C3)C1)C2)[C@@H]1CC=C[C@@H]2CCN(c3ccccc3)C(=O)[C@@H]21 (racemic) [compound 11946]	116 nM
O=C(Nc1ccc([N+](=O)[O-])cc1)[C@@H]1CC=C[C@@H]2CCN(c3ccccc3)C(=O)[C@@H]21 (racemic) [compound 11947]	141 nM
O=C(Nc1ccc(I)cc1)[C@@H]1CC=C[C@@H]2CCN(c3ccccc3)C(=O)[C@@H]21 (racemic) [compound 11948]	83 nM

From patent US8735391B2, “Synthesis of functionalized octahydro-isoquinolin-1-one-8-carboxamides, octahydro-isoquinolin-1-one-8-carboxylic esters and analogs, and therapeutic methods” (University of Kansas, priority 2008, dated 2014)
